Among the data in article PMC9219689, “The Antioxidant Cyclic 3-Hydroxymelatonin Promotes the Growth and Flowering of Arabidopsis thaliana” (Antioxidants, 2022) are inhibition and Km values, retold here.

For data set [1], the target named is T1, AtM3H (Arabidopsis thaliana melatonin 3-hydroxylase) (Arabidopsis thaliana, UniProt Q39224).
T1 construct: gene SRG1; full length, 358 residues; N-terminal hexahistidine tag (pET300), removal not mentioned; E. coli BL21(DE3), Ni-NTA purified
T1 sequence (Q39224 1-358): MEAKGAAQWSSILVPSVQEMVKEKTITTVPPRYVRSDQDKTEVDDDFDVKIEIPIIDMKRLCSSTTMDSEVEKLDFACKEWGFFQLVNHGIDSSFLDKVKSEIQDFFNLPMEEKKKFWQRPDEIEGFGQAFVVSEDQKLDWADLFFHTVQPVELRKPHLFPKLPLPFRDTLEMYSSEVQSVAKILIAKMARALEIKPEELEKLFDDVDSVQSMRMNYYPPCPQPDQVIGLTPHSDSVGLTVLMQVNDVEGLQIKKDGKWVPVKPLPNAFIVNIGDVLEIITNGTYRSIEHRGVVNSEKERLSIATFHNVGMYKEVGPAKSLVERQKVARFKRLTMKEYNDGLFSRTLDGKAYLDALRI
Put plainly: HPLC with fluorescence detection of 3-OHM; inhibition of M3H activity. The data set is classed as biochemical.

Substrate in data set [2]: COc1ccc2[nH]cc(CCNC(C)=O)c2c1
Put plainly: purified protein. Conditions: co-substrate α-ketoglutarate (160 µM in standard assay), FeSO4 100 µM, ascorbate 1 mM, catalase, optimum conditions (pH 7.3, 30 °C; Methods list Tris/HCl pH 8.0).

Broadly, the inhibition is how much of the control response was suppressed. A low value points to little suppression. As to `CCC(=O)C1C(=O)CC(C(=O)O)CC1=O` (centres unmarked) [Prohexadione-Ca], in data set [1], 500 µM produced 50% inhibition.

B1: AtM3H (Arabidopsis thaliana melatonin 3-hydroxylase) (Arabidopsis thaliana) (protein)
chain: T1 sequence (Q39224 1-358)
Broadly, the Km is the concentration of substrate that gives half-maximal velocity. As for B1, in data set [2], the Km came to 100 µM.
